Patent US12594265B2, “Methods and compositions for inhibition of STAT3” (Ohio State Innovation Foundation, priority 2017, dated 2026)

How the values were obtained:
EAE model of MS = experiment: T cell encephalitogenicity in adoptive transfer after in vitro treatment of the cells; type: in vivo; design: dose or concentration left out as unconfirmed; settings: cells activated 3 days, then transferred into naïve B10PL mice
Experimental: (§1) EAE Induction. Immunization: 8-10 week old B6/WT or SJL/WT mice were s.c. injected over four sites in the flank with 200 μg MOG 35-55 or […] (CS bio) in an emulsion with CFA (Difco). 200 ng pertussis toxin (List) per mouse in PBS was injected i.p. at the time of immunization and 48 h later. Adoptive transfer: Splenocytes were isolated from naïve 5-10-week-old Vα2.3/Vβ8.2 TCR transgenic mice and activated with 10 μg/ml of MBP Ac1-11 with or without rmIL-6 in 24-well plates at […] with irradiated B10.PL splenocytes (6×10^8 cells/well). After 72 hours, the cells were washed with PBS and 8×10^6 were injected i.p. into naïve B10.PL mice. Evaluation. The mice were evaluated daily for clinical signs of EAE. Mice were scored on scale of 0 to 6:0, no clinical disease; 1, limp/flaccid tail; 2, moderate hind limb weakness; 3. severe hind limb weakness; 4. complete hind limb paralysis; 5 quadriplegia or premoribund state; and 6, death.
DMSO was used as vehicle control. The cells were then adoptively transferred into naïve B10PL mice (disease incidence). Data are representative of multiple independent experiments.

[1] = test system: relapsing-remitting EAE model of MS; experiment: Relapsing-remitting EAE model of MS (PLP-immunized SJL mice); type: in vivo; settings: 10 mg/kg daily, days 9-15 or days 36-42
Experimental: as §1
SJL mice develop relapsing-remitting disease after immunization with PLP 139-151, which resembles human relapsing-remitting MS, the major subtype of MS that affects more than 85% of MS patients. […]

[2] = test system: pSTAT3 in myelin-specific CD4 T cells; experiment: pSTAT3 levels in myelin-specific CD4 T cells (intracellular flow cytometry); type: cell-based, mice; settings: 0.250 μM; MBP Ac1-11 and IL-6 activation
Experimental: Intracellular staining and flow cytometric analysis. Flow cytometric analysis was performed to evaluate the expression of surface markers and T-bet in CD4 T cells, as previously described (Yang, Weiner et al. 2009). Briefly, splenocytes were activated with antigen or αCD3/CD28 for 48 to 72 hours. Cells were then collected, washed, and resuspended in staining buffer (1% BSA in PBS). The cells were incubated with mAbs to the cell-surface markers for 30 min at 4° C. After washing twice with staining buffer, cells were fixed and permeabilized using Cytofix/Cytoperm solution for 20 min at 4° C. Cells were stained for intracellular cytokines and T-bet for 30 min at 4° C. 80,000-100,000 live cell events were acquired on a FACSCanto (BD) and analyzed using FlowJo software (Tree Star, Inc.). PerCP-anti-CD4, and Pacific Blue-anti-CD44 were purchased from BD. PE-anti-PD-1, PE-Cy7-anti-IL-7Rα and Pacific Blue-anti-T-bet were purchased from Biolegend Biotechnology, Inc.
LLL12b suppresses pSTAT3 expression and IL-17 production in myelin-specific CD4 T cells in a dose-dependent manner. LLL21b was further tested to assess suppression of pSTAT3 expression in myelin-specific CD4 T cells. FIGS. 7A-7B show representative data for the effect of a representative disclosed compound, LLL12b, on IL-17 production, pSTAT3 levels, and cell viability under various conditions. […]

[3] = test system: CD25+FoxP3+ iTregs of CD4 T cells from MS patients; experiment: iTreg development of CD4 T cells from MS patients (intracellular flow cytometry); type: cell-based, human
Experimental: FIGS. 14A-14M show representative data for LLL12b suppression of human Th17 development and promotion of Treg development in CD4 T-cells from MS patients. FIGS. 14A, 14E, 14H, and 14K each shown representative data obtained in PBMCs from 22 treatment-naïve MS patients that were activated with αhCD3 plus rhIL-6 for 3 days, in the presence of 0.125 μM or 0.25 μM of LLL12b. DMSO was used as a vehicle control. IL-17 in supernatant was determined by ELISA. FIGS. 14B-14C, 14F, 14I, and 14L each shown representative data obtained in PBMCs from 22 treatment-naïve MS patients that were activated with αhCD3/CD28 plus rhTGFβ. rhIL-2 and RA for 3 days, in the presence of 0.125 μM of LLL12b. DMSO was used as vehicle control. CD25+FoxP3+CD4+ iTregs were determined by intracellular flow cytometry. Cells were gated CD45RA+CD4+ cells. […] IL-17 in each group was compared with one-way ANOVA. […] FIG. 14G the calculated IL-17/Treg ratio of each patient in LLL12b group and DMSO group and compared with Wilcoxon matched-pairs signed rank test. […] FIG. 14J the calculated percent decrease of IL-17/Treg ratio in LLL12b group compared to DMSO group. […] FIG. 14M patient numbers in different ranges of calculated percent decrease of IL-17/Treg.
Meanwhile, we determined the extent to which LLL12b promotes the development of iTregs of CD4 T cells from MS patients (FIGS. 14B-14C, 14F, 14I, and 14L). PBMCs from 22 treatment-naïve MS patients were activated with αhCD3/CD28 for 3 days, in the presence of TGFβ, IL-2 and trans-retinoic acid (iTreg differentiating condition). After 72 h of culture under iTreg differentiating condition, the total number of CD25+FoxP3+ iTregs in the CD4+CD45RA+ population increased from 40% in control group to 59% in the group treated with LLL12b.

[4] = test system: splenocytes from naïve TCR transgenic mice; experiment: Cellular toxicity, trypan blue exclusion assay; type: cell-based; settings: 24 h, 48 h, 72 h; at the doses showing significant suppression of IL-17 production
Experimental: In vitro toxicity evaluation of new STAT3 prodrugs. Cellular toxicity testing was carried out using a trypan blue exclusion assay as described herein. FIGS. 6A-6C show representative data for cell viability after treatment with DMSO or the indicated concentration of the indicated representative prodrug at 24 h, 48 h, and 72 h post-treatment. The data were obtained using a trypan blue exclusion assay using splenocytes from naïve TCR transgenic mice that were cultured as described.

[5] = of 22 treatment-naïve MS patients, compared to DMSO

| SMILES | T cell encephalitogenicity in adoptive transfer (EAE model of MS) | acute and relapsing EAE (mean clinical score) [1] | pSTAT3 expression [2] | iTreg development of CD4 T cells from MS patients ([3]; 0.125 μM, 22 treatment-naïve MS patients) | patient numbers with % Increase of iTregs 5-20% [3, 5] | patient numbers with % Increase of iTregs 20-40% [3, 5] | patient numbers with % Increase of iTregs <5% [3, 5] | patient numbers with % Increase of iTregs >40% [3, 5] | CD25+FoxP3+ iTregs in the CD4+CD45RA+ population ([3]; one MS patient, 72 h, iTreg differentiating condition, control group 40%) [%] | cellular toxicity (cell viability, trypan blue exclusion) [4] |
| --- | --- | --- | --- | --- | --- | --- | --- | --- | --- | --- |
| NS(=O)(=O)c1cccc2c1C(=O)c1cccc(O)c1C2=O [LLL12] | inhibits T cell encephalitogenicity | – | – | – | – | – | – | – | – | – |
| CN(C)C(=O)Oc1cccc2c1C(=O)c1cccc(S(N)(=O)=O)c1C2=O [LLL12b] | – | significantly suppresses acute and relapsing EAE | notably suppresses pSTAT3 expression | significantly promotes iTreg development | 13 | 3 | 5 | 1 | 59 | minimal cellular toxicity |
